From PMC8177813 (Journal of pharmaceutical sciences, 2020)
Structures can show the parent of a compound that is named as a salt. Marks after values point to notes of the source that are not given here.

Biological target: T1, human OAT3 (Homo sapiens, UniProt Q8TCC7)
T1 sequence (Q8TCC7 1-542): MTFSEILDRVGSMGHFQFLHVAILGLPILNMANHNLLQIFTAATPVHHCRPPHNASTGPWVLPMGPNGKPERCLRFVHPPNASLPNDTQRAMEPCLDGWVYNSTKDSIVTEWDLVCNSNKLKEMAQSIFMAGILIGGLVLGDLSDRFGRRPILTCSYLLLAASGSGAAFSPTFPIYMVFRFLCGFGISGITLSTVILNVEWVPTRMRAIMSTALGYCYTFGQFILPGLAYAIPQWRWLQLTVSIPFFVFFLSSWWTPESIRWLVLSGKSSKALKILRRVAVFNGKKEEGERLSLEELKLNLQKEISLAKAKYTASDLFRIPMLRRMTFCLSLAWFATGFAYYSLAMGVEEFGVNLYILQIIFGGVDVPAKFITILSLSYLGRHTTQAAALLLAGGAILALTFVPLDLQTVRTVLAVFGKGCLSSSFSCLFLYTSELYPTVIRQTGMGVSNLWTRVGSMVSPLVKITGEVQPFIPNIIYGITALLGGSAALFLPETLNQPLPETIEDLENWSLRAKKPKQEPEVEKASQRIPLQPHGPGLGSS
Test: Inhibition of OAT3-mediated 6-carboxyfluorescein
Settings: read-out: Ki (OAT3)

| SMILES | Ki [µM] |
| --- | --- |
| O=C1NC(=O)C(Cc2ccc(OCCNc3ccccn3)cc2)S1 (stereo not shown) [N-desmethyl rosiglitazone] | 1.15 |
| Cc1c(CC(=O)O)c2cc(O)ccc2n1C(=O)c1ccc(Cl)cc1 [O-desmethyl indomethacin] | 0.27 |
| CC1=C(CC(=O)O)c2cc(F)ccc2/C1=C\c1ccc(S(C)(=O)=O)cc1 [Sulindac sulfone] | 0.6 |
| Cc1ccc(C(=O)c2ccc(CC(=O)O[C@@H]3O[C@H](C(=O)O)[C@@H](O)[C@H](O)[C@H]3O)n2C)cc1 [Tolmetin β-D-glucuronide] | 2.92 |

Biological target: T2, human OAT1 (Homo sapiens, UniProt Q4U2R8)
T2 sequence (Q4U2R8 1-563): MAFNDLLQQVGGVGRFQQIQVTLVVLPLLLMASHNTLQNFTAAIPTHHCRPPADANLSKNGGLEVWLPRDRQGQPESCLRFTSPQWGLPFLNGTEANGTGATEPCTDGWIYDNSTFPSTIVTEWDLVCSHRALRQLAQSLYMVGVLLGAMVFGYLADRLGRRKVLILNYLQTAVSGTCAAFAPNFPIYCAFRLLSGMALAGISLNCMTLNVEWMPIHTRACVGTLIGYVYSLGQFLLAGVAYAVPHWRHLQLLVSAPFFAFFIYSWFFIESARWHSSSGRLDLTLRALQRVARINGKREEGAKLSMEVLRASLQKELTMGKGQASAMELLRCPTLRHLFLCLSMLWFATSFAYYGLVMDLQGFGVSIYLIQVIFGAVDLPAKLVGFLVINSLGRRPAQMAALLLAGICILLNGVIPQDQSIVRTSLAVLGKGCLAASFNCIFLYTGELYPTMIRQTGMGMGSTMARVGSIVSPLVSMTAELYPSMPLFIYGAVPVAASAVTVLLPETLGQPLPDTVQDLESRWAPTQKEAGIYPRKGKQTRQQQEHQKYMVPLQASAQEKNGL
Test: Inhibition of OAT1-mediated 6-carboxyfluorescein
Settings: not given

| SMILES | Ki [µM] |
| --- | --- |
| C[C@]12CC[C@H](O)CC1=CC[C@@H]1[C@@H]2CC[C@]2(C)C(c3cccnc3)=CC[C@@H]12 [Abiraterone, reference compound] | > 20 |
| Cc1ccc(-c2cc(C(F)(F)F)nn2-c2ccc(S(N)(=O)=O)cc2)cc1 [Celecoxib, reference compound] | > 200 |
| CC(C(=O)O)c1ccc(-c2ccccc2)c(F)c1 (stereo not shown) [Flurbiprofen, reference compound] | 1.91 |
| COc1ccc(Cl)cc1C(=O)NCCc1ccc(S(=O)(=O)NC(=O)NC2CCCCC2)cc1 [Glyburide, reference compound] | 5.7 |
| CC(O)c1ccc(CCOc2ccc(CC3SC(=O)NC3=O)cc2)nc1 (stereo not shown) [Hydroxy pioglitazone] | 27.6 |
| CCCCc1nc(Cl)c(CO)n1Cc1ccc(-c2ccccc2-c2nn[nH]n2)cc1 [Losartan, reference compound] | 11.4 |
| Cc1cnc(NC(=O)C2=C(O)c3ccccc3S(=O)(=O)N2C)s1 [Meloxicam, reference compound] | 6.88 |
| CCc1ccc(CCOc2ccc(CC3SC(=O)NC3=O)cc2)nc1 (stereo not shown) [Pioglitazone, reference compound] | 6.3 |
| CN(CCOc1ccc(CC2SC(=O)NC2=O)cc1)c1ccccn1 (stereo not shown) [Rosiglitazone, reference compound] | 4.2 |
| CSc1ccc(/C=C2/C(C)=C(CC(=O)O)c3cc(F)ccc32)cc1 [Sulindac sulfide] | 3.68 |
| CC1=C(CC(=O)O)c2cc(F)ccc2/C1=C\c1ccc([S+](C)[O-])cc1 (stereo not shown) [Sulindac, reference compound] | 56.8 |
| Cc1ccc(C(=O)c2ccc(CC(=O)O)n2C)cc1 [Tolmetin, reference compound] | 3.01 |
| O=c1n(CCCN2CCN(c3cccc(Cl)c3)CC2)nc2ccccn12 [Trazodone, reference compound] | 19.9 |

Same assay, conditions: read-out: Ki (OAT1)

| SMILES | Ki [µM] |
| --- | --- |
| O=C1NC(=O)C(Cc2ccc(OCCNc3ccccn3)cc2)S1 (stereo not shown) [N-desmethyl rosiglitazone] | 33.3 |
| Cc1c(CC(=O)O)c2cc(O)ccc2n1C(=O)c1ccc(Cl)cc1 [O-desmethyl indomethacin] | 1.62 |
| CC1=C(CC(=O)O)c2cc(F)ccc2/C1=C\c1ccc(S(C)(=O)=O)cc1 [Sulindac sulfone] | 23 |
| Cc1ccc(C(=O)c2ccc(CC(=O)O[C@@H]3O[C@H](C(=O)O)[C@@H](O)[C@H](O)[C@H]3O)n2C)cc1 [Tolmetin β-D-glucuronide] | 7.17 |

Biological target: T1, human OAT3
Test: cell-based
Settings: not given

| SMILES | Ki [µM] |
| --- | --- |
| C[C@]12CC[C@H](O)CC1=CC[C@@H]1[C@@H]2CC[C@]2(C)C(c3cccnc3)=CC[C@@H]12 [Abiraterone, reference compound] | > 20 |
| Cc1ccc(-c2cc(C(F)(F)F)nn2-c2ccc(S(N)(=O)=O)cc2)cc1 [Celecoxib, reference compound] | > 200 |
| CC(C(=O)O)c1ccc(-c2ccccc2)c(F)c1 (stereo not shown) [Flurbiprofen, reference compound] | 1.8 |
| COc1ccc(Cl)cc1C(=O)NCCc1ccc(S(=O)(=O)NC(=O)NC2CCCCC2)cc1 [Glyburide, reference compound] | 0.21 |
| CC(O)c1ccc(CCOc2ccc(CC3SC(=O)NC3=O)cc2)nc1 (stereo not shown) [Hydroxy pioglitazone] | 1.37 |
| COc1ccc2c(c1)c(CC(=O)O)c(C)n2C(=O)c1ccc(Cl)cc1 [Indomethacin] | 0.11 |
| CCCCc1nc(Cl)c(CO)n1Cc1ccc(-c2ccccc2-c2nn[nH]n2)cc1 [Losartan, reference compound] | 0.36 |
| Cc1cnc(NC(=O)C2=C(O)c3ccccc3S(=O)(=O)N2C)s1 [Meloxicam, reference compound] | 0.54 |
| CCc1ccc(CCOc2ccc(CC3SC(=O)NC3=O)cc2)nc1 (stereo not shown) [Pioglitazone, reference compound] | 1.02 |
| CN(CCOc1ccc(CC2SC(=O)NC2=O)cc1)c1ccccn1 (stereo not shown) [Rosiglitazone, reference compound] | 0.59 |
| CSc1ccc(/C=C2/C(C)=C(CC(=O)O)c3cc(F)ccc32)cc1 [Sulindac sulfide] | 0.66 |
| CC1=C(CC(=O)O)c2cc(F)ccc2/C1=C\c1ccc([S+](C)[O-])cc1 (stereo not shown) [Sulindac, reference compound] | 1.65 |
| Cc1ccc(C(=O)c2ccc(CC(=O)O)n2C)cc1 [Tolmetin, reference compound] | 0.81 |
| O=c1n(CCCN2CCN(c3cccc(Cl)c3)CC2)nc2ccccn12 [Trazodone, reference compound] | 2.94 |

System: not given
Test: not given
Settings: plasma; ref Drugbank (https://www.drugbank.ca/drugs/DB00678); cited from earlier work

| SMILES | Unbound Fraction [%^d] |
| --- | --- |
| CCCCc1nc(Cl)c(CO)n1Cc1ccc(-c2ccccc2-c2nn[nH]n2)cc1 [Losartan, reference compound] | 1.4 |

Same assay, conditions: plasma; ref https://doi.org/10.1002/cpdd.132; cited from earlier work

| SMILES | Cmax [µM] |
| --- | --- |
| C[C@]12CC[C@H](O)CC1=CC[C@@H]1[C@@H]2CC[C@]2(C)C(c3cccnc3)=CC[C@@H]12 [Abiraterone, reference compound] | 0.37 |

Same assay, conditions: plasma; ref https://doi.org/10.1002/j.1552–4604.1993.tb04699.x; cited from earlier work

| SMILES | Cmax [µM] | Unbound Fraction |
| --- | --- | --- |
| CSc1ccc(/C=C2/C(C)=C(CC(=O)O)c3cc(F)ccc32)cc1 [Sulindac sulfide] | 22.6 | 6.01% |
| CC1=C(CC(=O)O)c2cc(F)ccc2/C1=C\c1ccc(S(C)(=O)=O)cc1 [Sulindac sulfone] | 4.48 | – |
| CC1=C(CC(=O)O)c2cc(F)ccc2/C1=C\c1ccc([S+](C)[O-])cc1 (stereo not shown) [Sulindac, reference compound] | – | 6.78%^a |

Same assay, conditions: plasma; ref https://doi.org/10.1124/jpet.110.165852; cited from earlier work

| SMILES | Unbound Fraction |
| --- | --- |
| CSc1ccc(/C=C2/C(C)=C(CC(=O)O)c3cc(F)ccc32)cc1 [Sulindac sulfide] | 4.6% |
| CC1=C(CC(=O)O)c2cc(F)ccc2/C1=C\c1ccc(S(C)(=O)=O)cc1 [Sulindac sulfone] | 2.1%^b |

System: not given
Test: not given
Settings: cited from earlier work

| SMILES | basic pKa |
| --- | --- |
| C[C@]12CC[C@H](O)CC1=CC[C@@H]1[C@@H]2CC[C@]2(C)C(c3cccnc3)=CC[C@@H]12 [Abiraterone, reference compound] | 5.19 |

Biological target: T1, human OAT3
Test: not given
Settings: not given

| SMILES | Ki [µM] |
| --- | --- |
| CCCN(CCC)S(=O)(=O)c1ccc(C(=O)O[C@@H]2O[C@H](C(=O)O)[C@@H](O)[C@H](O)[C@H]2O)cc1 | 19.9 |
| C[C@]12CC[C@@H]3c4ccc(OS(=O)(=O)O)cc4CC[C@H]3[C@@H]1CCC2=O [Estrone sulfate, reference compound] | 1 |
